Reference: patent US12187759B2, “TLR7 agonists” (Primmune Therapeutics, Inc., priority 2019, dated 2025)
pEC50: −log10 of the molar value.

What was measured:
human TLR7 = biological target: T1, human TLR7 (Homo sapiens, UniProt Q9NYK1); assay: TLR7 reporter cell assay (HEK293 cells stably expressing human TLR7 with NF-κB-driven SEAP reporter); type: cell-based; conditions: 15-24 hours; for Emax at 500 µM: HEK293, 500 μM compound, SEAP activity (OD 650 nm) relative to 28.5 μM resiquimod, read-out: Response at 500 μM Compound as a Percent of Resiquimod Response; for pEC50: fit of SEAP dose response, ymax from 28.5 μM resiquimod
T1 construct: host or cells: HEK293
T1 sequence (Q9NYK1 27-1049): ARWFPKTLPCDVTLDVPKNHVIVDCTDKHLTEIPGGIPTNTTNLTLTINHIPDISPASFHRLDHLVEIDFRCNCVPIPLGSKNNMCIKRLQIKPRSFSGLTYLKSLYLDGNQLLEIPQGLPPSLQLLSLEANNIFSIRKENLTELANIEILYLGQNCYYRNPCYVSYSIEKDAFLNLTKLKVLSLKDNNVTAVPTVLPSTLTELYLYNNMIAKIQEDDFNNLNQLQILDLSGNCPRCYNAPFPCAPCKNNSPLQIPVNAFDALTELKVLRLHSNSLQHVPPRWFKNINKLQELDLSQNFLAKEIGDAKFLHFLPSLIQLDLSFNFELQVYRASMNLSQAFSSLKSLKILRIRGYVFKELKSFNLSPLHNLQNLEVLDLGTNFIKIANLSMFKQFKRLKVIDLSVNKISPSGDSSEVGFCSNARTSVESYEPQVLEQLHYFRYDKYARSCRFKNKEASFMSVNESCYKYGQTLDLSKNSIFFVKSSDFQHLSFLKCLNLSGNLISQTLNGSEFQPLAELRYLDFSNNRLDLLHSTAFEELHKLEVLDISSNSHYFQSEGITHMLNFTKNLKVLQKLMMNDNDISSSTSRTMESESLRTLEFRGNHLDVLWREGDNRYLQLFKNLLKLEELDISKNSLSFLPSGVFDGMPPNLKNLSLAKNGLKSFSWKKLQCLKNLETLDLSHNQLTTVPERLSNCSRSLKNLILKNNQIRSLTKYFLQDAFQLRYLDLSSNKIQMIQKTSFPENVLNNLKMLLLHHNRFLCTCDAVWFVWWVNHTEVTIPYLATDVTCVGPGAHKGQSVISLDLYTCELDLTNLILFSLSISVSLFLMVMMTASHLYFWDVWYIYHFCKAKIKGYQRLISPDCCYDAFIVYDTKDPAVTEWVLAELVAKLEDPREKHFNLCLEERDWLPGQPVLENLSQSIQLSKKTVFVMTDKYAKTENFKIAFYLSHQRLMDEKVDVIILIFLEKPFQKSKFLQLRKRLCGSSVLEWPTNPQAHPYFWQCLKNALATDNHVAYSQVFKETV
Text: The engagement of TLRs by cognate ligands triggers downstream signaling cascades, leading to the activation of NF-κB and other transcription factors which initiate various immunomodulatory effects. The human embryonic kidney cell line, HEK293, is essentially non-responsive to TLR agonists, but ectopic expression of TLRs in these cells allows cognate agonists to activate endogenous NF-κB. Accordingly, the HEK293-TLR-NF-κB inducible reporter system is used to assay TLR agonists.
HEK293 cell lines stably expressing human TLR7 or TLR8 together with an NF-κB-driven-secreted alkaline phosphatase (SEAP) reporter were invented at InvivoGen (San Diego, California, USA) and used to assess compounds of the present invention for TLR7 and TLR8 agonist activities. Cells were seeded at 2-5×10^4 cells/well in 96 well plates (200 μl/well) and treated with various concentrations of compound (10 μl) for 15-24 hours. SEAP activity was determined by measuring OD at 650 nm; the media used to culture the cell lines contains the reagents required for SEAP detection. The EC50 values in Table 1 are calculated from fitting the dose response of measured SEAP activity for each compound to the following equation: Y=ymax*c^nh/(EC50^nh+c^nh)+blank where Y is the experimentally measured OD650 at concentration c of test article, blank is the observed OD650 in the absence of TLR7 agonist, ymax is the difference between the measured OD650 in the presence of 28.5 μM resiquimod and the blank and values of EC50 and nh are determined by nonlinear least squares analysis. Resiquimod is a known TLR7 and TLR8 agonist.
Compound A is 5-amino-3-((2R,3R,5S)-3-hydroxy-5-((S)-1-hydroxypropyl)tetrahydrofuran-2-yl)thiazolo[4,5-d]pyrimidine-2,7(3H,6H)-dione)

[1] = test system: hPBMCs (Human Peripheral Blood Mononuclear Cells); assay: Induction of interferon-α in hPBMCs in vitro; type: cell-based; conditions: for Emax / minimal effective concentration: Homo sapiens, PBMC; for Emax: 24 h, peak IFNα2a as percentage of peak response of standard 2-Amino-7-(cyclopropylmethyl)-9-B-D-xylofuranosyl-7,9-dihydro-1H-purine-6,8-dione, averaged across donors, read-out: IFNrmax, Relative Maximal IFNα2a Production (%); for minimal effective concentration: minimal effective concentration for interferon-α production (generally at least 80 pg/ml above baseline), geometric mean across at least three donors, 24 hours, read-out: Weighted MEC
Experimental: Treatment of hPBMCs with a TLR7 agonist typically induces some production of interferon-α as well as lesser amounts of a variety of other cytokines and chemokines. A typical experiment uses hPBMCs isolated from a healthy donor and placed in replicate cell culture wells; typically 1.0-7.5×10^6 cells are placed in each well. A test compound is added and the cells are cultured for 24 hours at 37° C. in a humidified atmosphere containing 5% CO2 post-addition; untreated controls are included. Secreted interferon-α production is measured using an a multisubtype interferon-α ELISA kit like those from PBL Assay Sciences or specifically as IFNα2a as part of a panel of cytokines and chemokines using luminex methodologies.
The minimal effective concentration (MEC) is the minimum concentration in a dose response curve where a significant increase in interferon-α production (generally at least 80 pg/ml) is observed above baseline. MEC values for each compound are determined for at least three donors. The weighted MEC for each compound is the geometric mean of all individual MECs across all donors. Concentrations tested typically consist of a two-fold dilution series starting at 100 μM. In the calculation of weighted MEC, any individual MEC value greater the highest concentration tested is arbitrarily set to two times the highest concentration tested unless all MECs for a compound exceed this value. The maximal amount of IFNα2a for each donor is determined from dose dependence for each compound.
In order to normalize for variation in each hPBMC preparation, these values are first transformed by expressing as a percentage of peak response measured with a standard (2-Amino-7-(cyclopropylmethyl)-9-B-D-xylofuranosyl-7,9-dihydro-1H-purine-6,8-dione) and then averaging the results across all donors, this average referred to as IFNrmax.
IFNmax is the maximum amount of IFN observed at any concentration across the evaluated concentration range. MEC and IFNmax values for three select compound are shown for three donors (Table 3). The range of tested concentrations were 0.625-5 μM for Imiquimod, 3.125-100 μM for both Compound A and Compound 1, 12.5-100 μM for Compound 2.

Compound | Emax at 500 µM (human TLR7) [%] | pEC50 (human TLR7) | Emax [1] [%] | minimal effective concentration [1] [µM] | further results
CC[C@H](O)[C@@H]1C[C@@H](O)[C@H](n2c(=O)n(C[C@@H](C)O)c3c(=O)[nH]c(N)nc32)O1 (single isomer, unassigned) [Compound 33] | 73 | 3.54 | 143 | 9.9 | 
C#CCn1c(=O)n([C@@H]2O[C@H](C(=O)OC)C[C@H]2O)c2nc(N)[nH]c(=O)c21 [Compound 39, Methyl (2S,4R,5R)-5-(2-amino-6,8-dioxo-7-(prop-2-yn-1-yl)-1,6,7,8-tetrahydro-9H-purin-9-yl)-4-hydroxytetrahydrofuran-2-carboxylate] | < 5 |  | ≤ 10 | > 50 | 
CC[C@H](O)[C@@H]1C[C@@H](O)[C@H](n2c(=O)n(CCO)c3c(=O)[nH]c(N)nc32)O1 [Compound 32, 2-Amino-9-((2R,3R,5S)-3-hydroxy-5-((S)-1-hydroxypropyl)tetrahydrofuran-2-yl)-7-(2-hydroxyethyl)-7,9-dihydro-1H-purine-6,8-dione] | 68 | 3.47 | 223 | 7.9 | 
C=C=Cn1c(=O)n([C@@H]2O[C@H]([C@@H](O)CC)C[C@H]2O)c2nc(N)[nH]c(=O)c21 [Compound 8, 2-Amino-9-((2R,3R,5S)-3-hydroxy-5-((S)-1-hydroxypropyl)tetrahydrofuran-2-yl)-7-(propa-1,2-dien-1-yl)-7,9-dihydro-1H-purine-6,8-dione] | < 5 |  | 215 | 5.4 | 
CC[C@H](O)[C@H]1O[C@@H](n2c(=O)n(CC3CC3)c3c(=O)[nH]c(N)nc32)[C@H](O)[C@H]1F [Compound 17, 2-Amino-7-(cyclopropylmethyl)-9-((2R,3S,4R,5R)-4-fluoro-3-hydroxy-5-((S)-1-hydroxypropyl)tetrahydrofuran-2-yl)-7,9-dihydro-1H-purine-6,8-dione] | 58 | 3.45 | 185 | ≤ 3.1 | 
Nc1nc2c(c(=O)[nH]1)n(CC1CC1)c(=O)n2[C@@H]1O[C@H]([C@@H](O)C(F)(F)F)C[C@H]1O [Compound 29, 2-Amino-7-(cyclopropylmethyl)-9-((2R,3R,5S)-3-hydroxy-5-((R)-2,2,2-trifluoro-1-hydroxyethyl)tetrahydrofuran-2-yl)-7,9-dihydro-1H-purine-6,8-dione] | 79 | 3.70 | 83 | 6.3 | 
C#CCn1c(=O)n([C@@H]2O[C@H](C(C)(C)O)[C@H](F)[C@H]2O)c2nc(N)[nH]c(=O)c21 [Compound 19, 2-Amino-9-((2R,3S,4R,5R)-4-fluoro-3-hydroxy-5-(2-hydroxypropan-2-yl)tetrahydrofuran-2-yl)-7-(prop-2-yn-1-yl)-7,9-dihydro-1H-purine-6,8-dione] | < 5 |  | ≤ 10 | > 50 | 

Further molecules by rising pEC50 (human TLR7), results first:

Emax at 500 µM (human TLR7) [%] | pEC50 (human TLR7) | Compound | Emax [1] [%] | minimal effective concentration [1] [µM] | further results
81 | 3.86 | CC[C@H](O)[C@@H]1C[C@@H](O)[C@H](n2c(=O)n(C[C@H](C)O)c3c(=O)[nH]c(N)nc32)O1 (single isomer, unassigned) [Compound 34] | 272 | 1.6 | 
67 | 3.99 | C#CCn1c(=O)n([C@@H]2O[C@H]([C@@H](O)CC)C[C@H]2O)c2nc(N)[nH]c(=O)c21 [Compound 1, 2-amino-9-((2R,3R,5S)-3-hydroxy-5-((S)-1-hydroxypropyl)tetrahydrofuran-2-yl)-7-(prop-2-yn-1-yl)-7,9-dihydro-1H-purine-6,8-dione] | 316 | ≤ 2.9 | Donor 1 IFNmax ([1]; Donor 1, maximum IFN at any concentration of the evaluated range): 3775 pg/mL; Donor 2 MEC ([1]; Donor 2, interferon-α production): 6.25 µM; Donor 2 IFNmax ([1]; Donor 2, maximum IFN at any concentration of the evaluated range): 2129 pg/mL; Donor 3 IFNmax ([1]; Donor 3, maximum IFN at any concentration of the evaluated range): 5623 pg/mL; IFNmax of Compound 1 relative to Compound A ([1]; donor 1): 3.6 fold; IFNmax of Compound 1 relative to imiquimod ([1]; donor 1): 4.8 fold; IFNmax of Compound 1 relative to Compound A ([1]; donor 2): 4.4 fold; IFNmax of Compound 1 relative to imiquimod ([1]; donor 2): 11.0 fold; IFNmax of Compound 1 relative to Compound A ([1]; donor 3): 2.5 fold; IFNmax of Compound 1 relative to imiquimod ([1]; donor 3): 4.2 fold; potency (MEC) of Compound 1 relative to Compound 2 ([1]; in every case (Donors 1, 2 and 3)): ≥ 16 fold
101 | 4.07 | CC[C@H](O)[C@H]1O[C@@H](n2c(=O)n(CC(F)(F)F)c3c(=O)[nH]c(N)nc32)[C@H](O)[C@H]1F [Compound 44, 2-Amino-9-((2R,3S,4R,5R)-4-fluoro-3-hydroxy-5-((S)-1-hydroxypropyl)tetrahydrofuran-2-yl)-7-(2,2,2-trifluoroethyl)-7,9-dihydro-1H-purine-6,8-dione] | 250 | 2 | 
97 | 4.26 | CC[C@H](O)[C@@H]1C[C@@H](O)[C@H](n2c(=O)n(CC(F)(F)F)c3c(=O)[nH]c(N)nc32)O1 [Compound 43, 2-Amino-9-((2R,3R,5S)-3-hydroxy-5-((S)-1-hydroxypropyl)tetrahydrofuran-2-yl)-7-(2,2,2-trifluoroethyl)-7,9-dihydro-1H-purine-6,8-dione] | 158 | 2.5 | 
